According to patent publication US20190111107A1, “METHODS FOR MODULATING INTESTINAL MICROBIOTA” (DEFENSIN THERAPEUTICS APS, priority 2016, published 2019):
Entries after “also recorded” stand apart in the source; their conditions may differ. Positions of bridges follow the written chain, without caps; N, C: chain ends. No end group written: not given here.

How the values were obtained:
[1] = tested on: Dextran Sodium Sulphate (DSS) induced colitis; assay: Acute 10-day Dextran Sodium Sulphate (DSS) induced colitis model, hBD-2-albumin fusion C-terminal; format: in vivo, mice; details: active control
Experimental: To determine and assess the anti-inflammatory effect of “hBD-2-albumin fusion C-terminal” in an acute 10-day Dextran Sodium Sulphate (DSS) induced colitis model in mice.
Treatment regimen: “hBD-2-albumin C-terminal” was administered intravenously via the tail vein or subcutaneously with the use of a sterile 25G needle in a dosing volume of 10 ml/kg body weight. The animals received 1 dose daily for 10 […] days. The active control Prednisolone (Pred) was given orally by gavage at a dose of 1 mg/kg in a dosing volume of 10 ml/kg body weight OD.

mice fed a high fat diet = assay: Prophylactic treatment with defensins in mice fed a high fat diet: weight, lean/fat mass, glucose homeostasis; format: in vivo, C57/BL/6J mice; details: for weight gain compared with HFD reference group: 10 week study, defensin in HFD, 1,2mg hBD2 per kg mouse per day, HD5 equimolar; for visceral fat (eWAT) compared with HFD group / liver weight: at termination; for liver weight: vs HFD and LFD groups; for glucose-stimulated insulin secretion compared with HFD control mice: during the glucose challenge; for Glucose Tolerance test compared with HFD group: oral glucose tolerance test; for HOMA-IR index compared with HFD group: week 9
Experimental: Schematic outline of the experimental set up for investigating the effects of mammalian alfa and/or beta defensins on mice metabolism. At week −1, the C57/BL/6J mice were divided in groups and cages, so that there were 3 mice per cage and cages per group. Between week −1 and 0, the mice were clinically examined by magnetic resonance scan to estimate fat distribution. […] At week 4, in addition to analysis of the microbiota, the mice were scanned and blood glucose and insulin levels were measured. […] At week 7, insulin tolerance test (ITT) was conducted. At week 8, oral glucose tolerance test (OGTT) and glucose-stimulated insulin secretion (GSIS) were conducted. At week 9 (termination), several analyses were conducted, in particular the mice were weighed and scanned, and plasma composition and microbiota composition of colon, cecum and small intestine were assessed.
Mice: Mice were housed in trios, 4 cages per group. Feed intake was registered daily just before lights were turned off (6 pm). Individual mice were subjected to experimental procedures in altered order both group and cage wise. Mice were kept at room temperature under a 12-hour light/dark cycle at SPF standard conditions.
Diets: For dosing, the average weight was estimated to be 25 grams per mouse. They eat approximately 3 grams of feed per mouse per day.
Treatment regime (FIG. 1A): Mice were fed either a high fat diet (HFD) or a low fat (LF) control diet. The HFD contains 4 subgroups; 1 hBD2, 1 HD5, 1 hBD2/HD5 and 1 standard HFD without supplementation of defensins. Defensin concentration is 1,2mg hBD2 per kg mouse per day. HD5 is given in equimolar concentration to hBD2.

diet-induced obese mice = assay: Interventional treatment with defensins in diet-induced obese mice: weight, fat percentage, glucose homeostasis; format: in vivo, C57/BL/6J mice; details: for fat percentage / change in fat percentage compared with HFD control: 4 weeks after dietary intervention; for Glucose Tolerance Test after start of intervention: OGTT repeated biweekly from week 13-0; for Insulin Tolerance Test: insulin sensitivity compared with HFD control group: week 9, p<0.05
Source text: FIG. 1B. Schematic outline of the experimental set up for investigating the effects of mammalian alfa and/or beta defensins on mice metabolism. At week −1, the C57/BL/6J mice arrived. At week 0 feces was collected. During run-in between week 0 and week 12 the mice were fed a high fat diet. At week 12 the mice were clinically examined by magnetic resonance scan to estimate fat distribution, feces was collected and oral glucose tolerance test (OGTT) and glucose-stimulated insulin secretion (GSIS) performed. At week 13-0 the mice were divided in groups and cages with 4 mice percage and 3 cages per group. At week 0, 12 and 13-10, the microbiome of the faeces was analysed. At week 13-2, 13-4, 13-6, 13-8 and 13-10 the mice were scanned and blood glucose and insulin levels were measured. At week 13-9, insulin tolerance test (ITT) was conducted. At week 13-10 (termination), several analyses were conducted, in particular the mice were weighed and scanned, and plasma composition and microbiota composition of colon, cecum and small intestine were assessed. In addition, iWAT, eWAT and liver weight were measured.
Mice and diets. The experiment elucidates the effect of hBD-2 and HD5 in the treatment of metabolic syndrome (MetS) in diet-induced obese mice. A run-in period of 13 weeks where mice were fed a very HFD (60% energy from fat) preceded the intervention. Only mice meeting the criteria of a minimum of 12 gram weight gain (approximately 50% of initial bodyweight) during the run-in period were included in the final analyses. […] They were exposed to all experimental tests, but excluded from the analyses.
Treatment regimen (FIG. 1B). Before the intervention all mice were MR scanned and an OGTT was performed. Cages of mice were allocated to experimental groups based on their fat mass. All subsequent measures were paired with data from the same mouse before the intervention.
A LFD (low fat diet) reference group was running in parallel. As controls for the intervention 2 additional groups were included: 1 very HFD and 1 LFD. Experimental mice stayed on the very HFD during the intervention. The mice were on the experimental diet for 10 weeks. They were co-housed throughout the experiment, 4 mice per cage, 3 cages per group. All tests ran over 3 days, 1 cage per group per day.

[2] = Pharmacokinetic study of hBD-2 after single oral gavage; format: in vivo, female NMRI mice
Experimental: FIG. 28. Pharmacokinetic data following oral administration of 4 mg/kg hBD-2 to female NMRI mice. […] The results are given as group mean +/−SEM.
Pharmacokinetic study to determine oral bioavailability and establish pharmacokinetic profile of hBD-2 following single oral gavage of 4 mg/kg administration to NMRI mice.
Treatment regimen: 21 female NMRI mice were dosed by oral gavage 5 ml/kg using a gavage tube and a 1 ml syringe according to the individual body weight obtained on the day of dosing. Urine was strived sampled at random time points by gently massaging the inguinal area of the abdomen. The first blood sample was taken using a submandibular sampling method. The second blood sample was collected from Isoflurane anaesthetised mice. Intestinal samples were taken after euthanasia. The abdomen of each mouse was opened and three sections (jejunum, duodenum, and colon) of the intestines were sampled.

intestinal microbiota = assay: Longitudinal 16S characterization of intestinal microbiota under prophylactic defensin treatment; format: in vivo, mice
Source text: FIG. 21A and 21B. The figures illustrate changes from week 1 (Wk1) to week 10 (Wk10) for the four treatments in Example 1: High fat diet with HD5-HF HD5; high fat diet with hBD2−HD hBD2; High fat diet—no treatment: HF; Low fat diet: LF. Weighted unifrac analysis of microbiota at week 1 (21A) and week 10 (21 B) i.e. relative abundance of bacterial species. […] Abbreviations: Wk 1—week 1; W10—week 10.
FIG. 21C. Illustration of the species of microbiota contributing to the change. […] Allobaculum is a short chain fatty acid producing species. Lactobacillus is a bacteria with anti-inflammatory properties.
Microbial analyses were carried out to study the microbiota of the intestine. Longitudinal 16S characterization was conducted on 4 paired samples from 60 mice, 240 samples in total. Each mouse was sampled prior to diet change, 1 week post diet change, 4 weeks post diet change and at termination, thus ensuring a thorough characterization of the faecal microbiota as a result of defensin treatment.

isolated hepatocytes = details: Liu et al. (2008); cited from earlier work

## C[C@]12C=CC(=O)C=C1CC[C@@H]1[C@@H]2[C@@H](O)C[C@@]2(C)[C@H]1CC[C@]2(O)C(=O)CO [Prednisolon, Prednisolone]
[1]; 1 mg/kg orally by gavage daily, p<0.05
  DAI: significant inhibition of the DAI on day 9
[1]; 1 mg/kg orally daily
  histological injury in the proximal part of the colon: failed to significantly reduce histological injury in the proximal part of the colon
[1]; 1 mg/kg orally daily, p<0.01
  histological injury in the distal colon: did reduce the injury in the distal colon

## GIGDPVTCLKSGAICHPVFCPRRYKQIGTCGLPGTKCCKKP (disulfide 8-37, 15-30, 20-38 (inferred)) [hBD-2, human beta defensin 2]
Mice fed a high fat diet
  weight gain compared with HFD reference group: gained significantly less weight than the HFD reference group
  visceral fat (eWAT) compared with HFD group: significantly less visceral fat (eWAT) than the HFD group
  liver weight: no statistical difference between the three groups in terms of liver weight
  glucose-stimulated insulin secretion compared with HFD control mice: glucose stimulated insulin response during the glucose challenge was improved
  HOMA-IR index compared with HFD group: statistically significantly lower
Mice fed a high fat diet; 60% HFD
  share of defensin-fed mice with a Body Fat Percent resembling LFD reference mice: 50%
  visceral fat mass of the best protected mice compared with LFD reference mice: same or smaller visceral fat mass than LFD reference mic
Mice fed a high fat diet; HFD plus hBD-2 vs HFD
  lean mass gained at the end of the study compared with HFD group: gained the same amount of lean mass
Mice fed a high fat diet; HFD plus hBD-2 vs LFD, p=0.25
  fat mass at the end of the study compared to the LFD group: trended towards increased fat mass compared to the LFD group
Mice fed a high fat diet; during the GTT, week 7
  Glucose Stimulated Insulin Secretion: insulin concentration compared with LFD group: higher but not significantly different insulin concentration than the LFD group; also recorded: higher but not significantly different insulin concentration from the LFD group
Mice fed a high fat diet; first analysis, p=0.005
  amount of fat mass gained by the HFD group compared to the HFD plus hBD-2 group: 2 times
Mice fed a high fat diet; mouse, in vivo
  Insulin Tolerance test: compared with LFD reference group: no statistical significant difference between the LFD reference group and the HFD plus hBD-2 group
  Insulin Tolerance test: insulin sensitivity compared with HFD group: significantly more sensitive to insulin than the HFD group
Mice fed a high fat diet; week 7
  Glucose Tolerance test compared with HFD group: slightly prolonged glucose clearance but reached significantly lower glucose levels than the HFD group
Mice fed a high fat diet; week 7, listed as hBD2
  Glucose Tolerance test compared with HFD group: Glucose tolerance was markedly improved compared to HFD control mice
Mice fed a high fat diet; p=0.057
  Five Hour Fasting insulin: HFD group compared with HFD plus hBD-2 group: borderline significantly higher fasting insulin than the HFD plus hBD-2 group
Mice fed a high fat diet; p=0.17
  Five Hour Fasting insulin: LFD compared with HFD plus hBD-2 group: no significant difference between the LFD and HFD plus hBD-2 groups
Mice fed a high fat diet; re-analysis, p=0.005
  amount of fat mass in percent of total body weight gained by the HFD group compared to the HFD plus hBD-2 group: two times
diet-induced obese mice
  fat percentage / change in fat percentage compared with HFD control: significantly smaller
  Glucose Tolerance Test after start of intervention: smaller peak in blood glucose as well as a faster clearance of glucose already after 2 weeks
  Insulin Tolerance Test: insulin sensitivity compared with HFD control group: more insulin sensitive compared to the HFD control group
diet-induced obese mice; following 2 weeks of intervention
  obese and glucose intolerant mice that significantly improved their glucose tolerance: 7/8
diet-induced obese mice; mouse, in vivo
  visceral fat (eWAT) at termination compared with HFD control: no significant difference in visceral fat (eWAT) between the HFD fed groups
diet-induced obese mice; p=0.07
  weight gain the first 4 weeks post dietary intervention compared with standard HFD group: tended to gain less weight the first 4 weeks post dietary intervention, although not significantly
diet-induced obese mice; p=0.82
  weight gain from week 4 to the end of the study period compared with standard HFD group: gained similar weight as the standard HFD group
diet-induced obese mice; weeks 4 post dietary intervention
  share of the group with a smaller fat percentage than before the intervention: ~75%
[2]; 4 mg/kg oral, mice
  systemic availability after oral dosing: not systemically available
[2]; oral 4 mg/kg
  time hBD2 remains detectable in the colon content after administration: up to 360 minutes

## human intestinal alpha defensin 5 (ATCYCRTGRCATRESLSGVCEISGRLYRLCCR; listed as Homo sapiens) [HD5]
Mice fed a high fat diet
  weight gain compared with HFD reference group: gained less weight than HFD-fed control mice (FIG. 17A), although the effect was not statistically significant
  visceral fat (eWAT) compared with HFD group: borderline less visceral fat
  liver weight: No statistically significant difference with respect to liver weight
  glucose-stimulated insulin secretion compared with HFD control mice: no significant improvement
  HOMA-IR index compared with HFD group: no significant improvement
Mice fed a high fat diet; mouse, in vivo
  Insulin Tolerance test: insulin sensitivity compared with HFD group: no significant improvement
  fat % compared with HFD-fed control mice: borderline less fat %
  feed efficiency compared with HFD-fed control mice: tendency towards lower feed efficiency
Mice fed a high fat diet; week 7
  Glucose Tolerance test compared with HFD group: no significant improvement
diet-induced obese mice
  fat percentage / change in fat percentage compared with HFD control: significantly lower fat percentage
  Glucose Tolerance Test after start of intervention: improved over time
  Insulin Tolerance Test: insulin sensitivity compared with HFD control group: more insulin sensitive than the HFD control
diet-induced obese mice; 10 weeks intervention
  fat percentage of total body weight over time: tendency of decreasing fat percentage
diet-induced obese mice; 10 weeks on experimental diet
  weight gain after dietary intervention compared with HFD control: gained significantly less weight than the HFD control
diet-induced obese mice; mouse, in vivo
  visceral fat (eWAT) at termination compared with HFD control: not significantly different
  weight of the liver at termination compared to the HFD control: tended to be decreased
Intestinal microbiota; after 10 weeks, oral HD5 in HFD
  microflora composition (weighted unifrac analysis) relative to LFD and non-treated HFD groups: gradually approached the bacterial flora of mice fed a LFD; also recorded: partial normalization of the microflora
Intestinal microbiota; at termination
  abundance of bacterial genera in the intestinal microbiota compared with non-treated HFD mice: increased abundance of Allobaculum and Lactobacillus and a decrease in abundance of Clostridium

## human neutrophil peptide 1 [HNP-1]
Isolated hepatocytes
  inhibition of glycogenolysis and gluconeogenesis: able to inhibit glycogenolysis and gluconeogenesis in isolated hepatocytes

## human neutrophil peptide 2 (CYCRIPACIAGERRYGTCIYQGRLWAFCC; ends and bridges not checked; cysteine pairing not given here; UniProt P59665 66-94, looked up) [HNP-2, α-defensin produced by leucocytes]
Isolated hepatocytes
  inhibition of glycogenolysis and gluconeogenesis: able to inhibit glycogenolysis and gluconeogenesis in isolated hepatocytes
